According to article PMC10765375, “Crystal structure and enzymology of Solanum tuberosum inositol tris/tetrakisphosphate kinase 1 (StITPK1)” (Biochemistry, 2023):
“Also recorded” adds a separate entry of the source. Where two headings read alike, the source gives them in different places.

What was measured:
StITPK1 [1] = molecular target: T1, StITPK1 (Solanum tuberosum, UniProt A4H2J0); test: Competition/inhibition of Ins(1,2,3,4,5)P5 5-phospho-kinase activity, HPLC; assay type: biochemical; conditions: for % inhibition at 3h, Ins(1,2,3,4,5)P5 substrate: 0.5 mM competing substrate/inhibitor, 1 mM Ins(1,2,3,4,5)P5, 3h experiment; for inhibition of Ins(1,2,3,4,5)P5 phospho-kinase activity: 0.5 mM competitor
T1 sequence (A4H2J0 entry or part of it): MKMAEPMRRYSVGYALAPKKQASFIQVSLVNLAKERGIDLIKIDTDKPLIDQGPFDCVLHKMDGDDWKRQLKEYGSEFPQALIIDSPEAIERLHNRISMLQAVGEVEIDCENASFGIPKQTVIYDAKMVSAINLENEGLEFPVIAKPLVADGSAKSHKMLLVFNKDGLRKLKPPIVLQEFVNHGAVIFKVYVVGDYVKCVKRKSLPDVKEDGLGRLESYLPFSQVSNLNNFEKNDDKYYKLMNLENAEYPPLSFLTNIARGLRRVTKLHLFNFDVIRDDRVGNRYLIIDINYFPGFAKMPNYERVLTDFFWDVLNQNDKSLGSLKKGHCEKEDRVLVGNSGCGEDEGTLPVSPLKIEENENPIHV

StITPK1 [2] = molecular target: T1, StITPK1; test: Fluorescence polarization displacement of 2-FAM-InsP5; assay type: binding; conditions: Cheng-Prusoff with Kd 48 nM
Excerpt: To determine the relative strengths of binding of different inositol phosphate and inositol pyrophosphate substrates of StITPK1 we undertook fluorescence polarization experiments with 2-FAM-InsP5 [35]. […] A saturation curve for binding of 2-FAM-InsP5 to StITPK1 is shown (Figure S5) and displacement curves are shown for diverse inositol phosphates (Figure 2). The structures of these compounds are shown (Figure S1). […]
Fluorescence polarization (anisotropy)
A curve for binding of 2-FAM-InsP5 to StITPK1 was obtained by incubation of 2 nM 2-FAM-InsP5 [1] with increasing concentration (1-500 nM) of StITPK1 in 20 mM HEPES pH 6.5, 1 mM EDTA, 100 mM NaCl, after. Thereafter, displacement assays were performed by titration of inositol phosphate, inositol pyrophosphate […]
or analog thereof with 2 nM 2-FAM-InsP5 and 50 nM StITPK1. Compounds were tested for displacement in a range of 1 nM - 50 µM. Fluorescence polarization was measured in 384-well, black, low-binding plates, Corning product 3573. Binding and displacement curves (anisotropy) were log transformed and fitted to a 4-parameter logistic (in GraphPad Prism v.6 software (GraphPad Software Inc., San Diego, USA). Fitting of the […]
Substituting the value of Kd for KM in the Cheng-Prusoff equation for competitive inhibition: […]
with concentration of 2-FAM-InsP5 [S], yielded Ki with confidence intervals adjusted by linear approximation.
M.; Jamieson, A. G.; Potter, B. V.; Schwabe, J. W., Insights into the activation mechanism of class I HDAC complexes by inositol phosphates. Nat Commun 2016, 7, 11262. […]

StITPK1 [3] = molecular target: T1, StITPK1; test: Kinase assay with ATP, HPLC of products; assay type: biochemical; conditions: for Product formation (3h) / Product formation (12h) / Product formation (separate 12h experiment): 1 mM substrate; for Product formation (3h) / Product formation (12h): 25°C; for kinase substrate status: with ATP, HPLC
Description: (§1) Kinase assays were performed with ATP-regeneration as described for ATP-grasp kinases ITPK1/2 and VIH1/2 [2-3, 27-29], here in 20 mM HEPES pH 6.5, 1 mM MgCl2, 0.5 mM ATP and 1 mM inositol phosphate substrate. The low rate constants for phospho-kinase activity and the low sensitivity of NMR, PAGE and HPLC […]
[2-3, 27-29], here with or without 4 µM protein for 3h or 12h at 25 °C. Competition/inhibition assays were […]
InsP6, and competitor, typically 0.5 mM, incubated with or without 3 µM protein for 2 h at 25 °C . […]
(§2) 0.5 mM inositol pyrophosphate substrate incubated with 4 µM protein at 25 °C . HPLC analysis and detection of inositol phosphates by complexation with ferric ion was performed as described. Peak area data were analysed with the chromatography Jasco ChromNav v.2 software and x,y data were imported into GraphPad Prism v.6 software (GraphPad Software Inc., San Diego, USA) for plotting of chromatograms without additional processing of the data. […]

AtITPK1 = molecular target: T2, AtITPK1; test: Kinase assay with ATP, HPLC of products; assay type: biochemical, Arabidopsis thaliana; conditions: with ATP, HPLC
T2 construct: made in house
Description: as §1
[2-3, 27-29], here with or without 4 µM protein for 3h or 12h at 25 °C. […]
as §2

[4] = 2 nM 2-FAM-InsP5, 50 nM StITPK1, pH 6.5, read-out: Ki for displacement of 2-FAM-InsP5
[5] = Ki for displacement of 2-FAM-InsP5, 2 nM 2-FAM-InsP5, 50 nM StITPK1, pH 6.5

| Structure (SMILES) | % inhibition at 3h, Ins(1,2,3,4,5)P5 substrate (StITPK1 [1]) | Ki (StITPK1 [2]; [4]) | Product formation (3h) (StITPK1 [3]) | Product formation (12h) (StITPK1 [3]) | kinase substrate status (StITPK1 [3]) | kinase substrate status (AtITPK1) | inhibition of Ins(1,2,3,4,5)P5 phospho-kinase activity (StITPK1 [1]) | Ki (StITPK1 [2]; [5]) | Product formation (separate 12h experiment) (StITPK1 [3]) |
| --- | --- | --- | --- | --- | --- | --- | --- | --- | --- |
| O=P(O)(O)CP(=O)(O)OC1C(OP(=O)(O)O)C(OP(=O)(O)O)C(OP(=O)(O)O)C(OP(=O)(O)O)C1OP(=O)(O)O (stereo not drawn) [5-PCP-InsP5, myo-inositol 1,2,3,4,6-penta-phosphate-5-methylenediphosphonate] | 60% | 101 nM | 0 μM/μM protein | 0 μM/μM protein |  |  |  |  |  |
| O=P(O)(O)O[C@@H]1[C@@H](OP(=O)(O)O)[C@@H](OP(=O)(O)O)[C@@H](OP(=O)(O)OP(=O)(O)O)[C@H](OP(=O)(O)O)[C@H]1OP(=O)(O)O [1-PP-InsP5, 1D-1-diphospho-myo-inositol 2,3,4,5,6-pentakisphosphate] | 76% |  | 9 μM/μM protein | 75 μM/μM protein | the weaker substrate |  |  |  |  |
| O=P(O)(O)CP(=O)(O)OC1C(OP(=O)(O)O)C(OP(=O)(O)O)C(OP(=O)(O)O)C(OP(=O)(O)O)C1OP(=O)(O)O (stereo not drawn) [3-PCP-InsP5, myo-inositol 1,2,4,5,6-penta-phosphate-3-methylenediphosphonate] | 78% |  | 41 μM/μM protein | 232 μM/μM protein | better substrates | better substrates | potent inhibitors |  |  |
| O=C(CP(=O)(O)O)NC1C(OP(=O)(O)O)C(OP(=O)(O)O)C(OP(=O)(O)O)C(OP(=O)(O)O)C1OP(=O)(O)O (stereo not drawn) [5-PCH2AM-InsP5, 5-deoxy-5-(phosphonoacetamido)-myo-inositol 1,2,3,4,6-pentakisphosphate] | 43% |  | 0 μM/μM protein | 25 μM/μM protein | very weak substrates |  |  | 889 nM |  |
| O=P(O)(O)OC1C(OP(=O)(O)O)C(OP(=O)(O)O)C(OP(=O)(O)O)C(OP(=O)(O)O)C1OP(=O)(O)O (stereo not drawn) [scyllo-InsP6, scyllo-inositol 1,2,3,4,5,6-hexakisphosphate] |  |  |  | 0 μM/μM protein | failure of StITPK1 to phosphorylate |  |  | 423 nM | 0 μM/μM protein |
| O=P(O)(O)OC1C(OP(=O)(O)O)C(OP(=O)(O)O)C(OP(=O)(O)O)C(OP(=O)(O)O)C1OP(=O)(O)O (stereo not drawn) [neo-InsP6, neo-inositol 1,2,3,4,5,6-hexakisphosphate] |  |  |  | 0 μM/μM protein | failure of StITPK1 to phosphorylate |  |  | 111 nM | 0 μM/μM protein |
| O=P(O)(O)O[C@@H]1[C@@H](OP(=O)(O)O)[C@H](OP(=O)(O)O)[C@@H](O)[C@@H](O)[C@H]1OP(=O)(O)O [Ins(1,4,5,6)P4, 1D-myo-inositol 1,4,5,6-tetrakisphosphate] |  | 2560 nM |  |  |  |  |  |  | 41 μM/μM protein |
| O=P(O)(O)OC1[C@@H](OP(=O)(O)O)[C@H](OP(=O)(O)O)C(OP(=O)(O)OP(=O)(O)O)[C@@H](OP(=O)(O)O)[C@H]1OP(=O)(O)O (stereo partly drawn) [3-PP-InsP5, 1D-3-diphospho-myo-inositol 1,2,4,5,6-pentakisphosphate] | 71% |  | 35 μM/μM protein | 193 μM/μM protein | phospho-kinase substrates; also recorded: a stronger substrate than 1-PP-InsP5 | a stronger substrate than 1-PP-InsP5 |  |  |  |
| O=P(O)(O)O[C@@H]1[C@H](OP(=O)(O)O)[C@H](OP(=O)(O)O)[C@@H](O)[C@H](OP(=O)(O)O)[C@H]1OP(=O)(O)O [Ins(1,2,3,5,6)P5, 1D-myo-inositol 1,2,3,5,6-pentakisphosphate] |  | 288 nM |  |  | lacking activity |  |  |  | 0 μM/μM protein |
| O=P(O)(O)OC1C(OP(=O)(O)O)C(OP(=O)(O)O)C(OP(=O)(O)O)C(OP(=O)(O)O)C1OP(=O)(O)O [D-chiro-InsP6, 1-D-chiro-inositol 1,2,3,4,5,6-hexakisphosphate] |  |  |  | 0 μM/μM protein | not a substrate |  |  | 154 nM | 0 μM/μM protein |
| O=C(O)CP(=O)(O)O[C@H]1[C@H](OP(=O)(O)O)[C@@H](OP(=O)(O)O)[C@@H](OP(=O)(O)O)[C@@H](OP(=O)(O)O)[C@@H]1OP(=O)(O)O [5-PA-InsP5, myo-inositol 1,2,3,4,6-penta-phosphate-5-phosphonoacetate] | 44% |  | 50 μM/μM protein | 236 μM/μM protein | strongest phospho-kinase substrate after myo-InsP6 | weak substrate |  |  |  |
| O=P(O)(O)CP(=O)(O)O[C@@H]1[C@H](OP(=O)(O)O)[C@H](OP(=O)(O)O)[C@@H](OP(=O)(O)O)[C@H](OP(=O)(O)O)[C@H]1OP(=O)(O)O [1-PCP-InsP5, myo-inositol 2,3,4,5,6-penta-phosphate-1-methylenediphosphonate] | 61% |  | 22 μM/μM protein | 145 μM/μM protein | better substrates | better substrates | potent inhibitors |  |  |
| O=C(NC1C(OP(=O)(O)O)C(OP(=O)(O)O)C(OP(=O)(O)O)C(OP(=O)(O)O)C1OP(=O)(O)O)C(F)(F)P(=O)(O)O (stereo not drawn) [5-PCF2AM-InsP5, 5-deoxy-5-(phosphonodifluoroacetamido)-myo-inositol 1,2,3,4,6-pentakisphosphate] | 67% |  | 0 μM/μM protein | 0 μM/μM protein | not a substrate |  |  | 106 nM |  |
| O=P(O)(O)O[C@@H]1[C@@H](OP(=O)(O)O)[C@H](OP(=O)(O)O)[C@@H](O)[C@H](OP(=O)(O)O)[C@@H]1OP(=O)(O)O [Ins(1,2,3,4,5)P5, 1D-myo-inositol 1,2,3,4,5-pentakisphosphate] |  | 431 nM |  |  | showing phospho-kinase activity |  |  |  | 257 μM/μM protein |
